From patent US9284308B2, “Methylene linked quinolinyl modulators of RORγt” (Janssen Pharmaceutica NV, priority 2013, dated 2016) come the findings set out here.

In test [1] the target is T1, human RORγt ligand binding domain (RORγt LBD) (Homo sapiens, UniProt P51449).
T1 construct: His-tag (N); TurboTEV protease cleavage site (ENLYFQG) (N); made in house; host or cells: E. coli (pHIS1, modified pET vector)
T1 sequence (P51449 with tags, fused parts or gaps): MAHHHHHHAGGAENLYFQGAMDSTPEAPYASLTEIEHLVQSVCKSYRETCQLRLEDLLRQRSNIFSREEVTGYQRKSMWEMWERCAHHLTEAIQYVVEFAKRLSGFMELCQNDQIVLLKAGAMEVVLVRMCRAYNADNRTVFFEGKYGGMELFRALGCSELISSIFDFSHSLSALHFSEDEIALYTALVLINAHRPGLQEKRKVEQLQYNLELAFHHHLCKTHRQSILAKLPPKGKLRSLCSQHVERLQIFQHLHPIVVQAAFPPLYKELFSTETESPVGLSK
Description: RORγt ThermoFluor assay (ligand binding affinity from protein thermal stability). How it is done: This approach is applicable to a wide variety of systems, and rigorous in theoretical interpretation through quantitation of equilibrium binding constants (KD).
The shift in the melting point described as a ΔTm is proportional to the concentration and affinity of the ligand.
RORγt ThermoFluor® Assay Construct
Protein and compound solutions are dispensed into black 384-well polypropylene PCR microplates (Abgene) and overlayed with silicone oil (1 μL, Fluka, type DC 200) to prevent evaporation.
Bar-coded assay plates are robotically loaded onto a thermostatically controlled PCR-type thermal block and then heated at a typical ramp-rate of 1° C./min for all experiments. Fluorescence was measured by continuous illumination with UV light (Hamamatsu LC6) supplied via fiber optic and filtered through a band-pass filter (380-400 nm; >6 OD cutoff). Fluorescence emission of the entire 384-well plate was detected by measuring light intensity using a CCD camera (Sensys, Roper Scientific) filtered to detect 500±25 nm, resulting in simultaneous and independent readings of all 384 wells. Images were collected at each temperature, and the sum of the pixel intensity in a given area of the assay plate was recorded versus temperature. Reference wells contained RORγt without compounds, and the assay conditions were as follows: • 0.065 mg/mL RORγt • 60 μM 1,8-ANS • 100 mM Hepes, pH 7.0 • 10 mM NaCl • 2.5 mM GSH • 0.002% Tween-20
Project compounds were arranged in a pre-dosed mother plate (Greiner Bio-one) wherein compounds are serially diluted in 100% DMSO by 1:2 from a high concentration of 10 mM over 12 columns within a series (column 12 is a reference well containing DMSO, no compound). The compounds were robotically dispensed directly into assay plates (1×=[…]) using a Hummingbird capillary liquid handling instrument (Digilab). Following compound dispense, protein and dye in buffer was added to achieve the final assay volume of 3 μL, followed by 1 μL of silicone oil.
(In general: Differential scanning fluorimetry follows unfolding on heating by fluorescence.)

Test [2] deals with T2, human RORγt LBD (Homo sapiens, UniProt P51449).
T2 construct: expressed in transfected cells; host or cells: HEK293T
T2 sequence (P51449 258-518): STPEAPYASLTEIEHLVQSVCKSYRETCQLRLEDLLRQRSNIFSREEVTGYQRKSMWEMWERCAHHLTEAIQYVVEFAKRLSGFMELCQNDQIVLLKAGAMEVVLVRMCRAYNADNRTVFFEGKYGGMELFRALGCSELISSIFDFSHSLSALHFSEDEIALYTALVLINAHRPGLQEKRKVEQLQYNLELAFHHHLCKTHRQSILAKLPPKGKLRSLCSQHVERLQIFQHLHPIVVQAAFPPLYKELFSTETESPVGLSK
The test is described as follows: RORγt (LBD) reporter assay in HEK293T cells. The class given is cell-based. The note with it: for RORγt (LBD) Reporter Assay, % inhibition @ 6 μM: 6 μM compound; for inhibition at 6 µM: HEK-293T, read-out: RORγt (LBD) Reporter Assay, % inhibition @ 6 μM, 6 μM compound. The text has this: RORγt (LBD) Reporter Assay
Cells used in the assay were co-transfected with two constructs. The first construct, pBIND-RORγt LBD, contained the wild type human RORγt LBD fused to the DNA binding domain of the GAL4 protein. The second construct, pGL4.31 (Promega Cat no. C935A), contained multiple GAL4 responsive DNA elements upstream of firefly luciferase. […] The mutant construct was called pBIND-RORγt-AF2.
The pBIND vector contains the GAL4 DNA Binding Domain (GAL4 DBD) and the renilla luciferase gene under control of the SV40 promoter. Renilla luciferase expression serves as a control for transfection efficiency and cell viability.
The reporter assay was performed by transiently transfecting HEK293T cells with 5 μg of pBIND-RORγt LBD or pBIND-RORγt LBD-AF2 and 5 μg pGL4.31 (Promega Cat no. C935A) using Fugene 6 (Invitrogen Cat no. E2691) at a 1:6 ratio of DNA:Fugene 6 in a T-75 flask in which cells were at least 80% confluent. Twenty four hours after bulk transfection, cells were plated into 96-well plates at 50,000 cells/well in phenol-red free DMEM containing 5% Lipid Reduced FCS and Pen/Strep. Six hours after plating, cells were treated with compounds for 24 hours. Media was removed and cells were lysed with 50 μL 1× Glo Lysis Buffer (Promega). Dual Glo Luciferase Reagent (50 μL/well) was then added and firefly luciferase luminescence was read on an Envision after a ten minute incubation. Finally, Stop and Glo reagent (50 μL/well) was added and renilla luciferase luminescence was read on an Envision after a ten minute incubation. […] Agonist compounds increase RORγt-driven luciferase expression, and antagonist or inverse agonist compounds decrease luciferase expression.
A general note: Reporter assays use an easily measured gene product as a stand-in for the process of interest.

The test system of test [3] is IL-17 production by CD4 T cells. The test is described as follows: Human Th17 assay. The class given is cell-based. Conditions: IL-17 production by human CD4 T cells. How it is done:
The human Th17 assay tests the effect of RORγt modulatory compounds on IL-17 production by CD4 T cells under conditions which favor Th17 differentiation. Total CD4^+ T cells were isolated from the peripheral blood mononuclear cells (PBMC) of healthy donors using a CD4^+ T cell isolation kit II, following the manufacturer's instructions (Miltenyi Biotec). […] 50 μL of compound at titrated concentrations in DMSO were added into each well at final DMSO concentration at 0.2%. Cells were incubated for 1 hour, then 50 μL of Th17 cell differentiation medium was added to each well. The final concentrations of antibodies and cytokines (R&D Systems) in differentiation medium were: 3×10^6/mL anti-CD3/CD28 beads (prepared using human T cell activation/expansion kit, Miltenyi Biotec), 10 μg/mL anti-IL4, 10 μg/mL anti-IFNγ, 10 ng/mL IL1β, 10 ng/mL IL23, 50 ng/mL IL6, 3 ng/mL TGFβ and 20 U/mL IL2. Cells were cultured at 37° C. and 5% CO2 for 3 days. Supernatants were collected and the accumulated IL-17 in culture was measured by using MULTI-SPOT® Cytokine Plate following manufacture's instruction (Meso Scale Discovery). The plate was read using Sector Imager 6000, and IL-17 concentration was extrapolated from the standard curve. The IC50s were determined by GraphPad.

Each structure is given as a SMILES string. Counter-ions that a name gives are not always drawn.

Regarding `COc1nc2ccc(C(O)(c3ccc(Cl)cc3)c3cncn3C)cc2c(Cl)c1Cc1ccc(C(F)(F)F)nc1` (single isomer, unassigned) [Example 39c], in test [1], the Kd came to 0.019 µM. In test [2], it took 0.081 µM to reach half-maximal inhibition (IC50) and the “RORγt (LBD) Reporter Assay, % inhibition @ 6 μM” value (“RORγt … % inhibition @ 6 μM” below) is reported as 98%. This molecule gave an IC50 in test [3] (Homo sapiens, CD4+ T) of 0.037 µM.

In test [1], `COc1nc2ccc(C(O)(c3ccc(C)nc3C)c3cnnn3C)cc2c(Cl)c1Cc1ccc(F)cc1` (single isomer, unassigned) [Example 48c, (4-Chloro-3-(4-fluorobenzyl)-2-methoxyquinolin-6-yl)(2,6-dimethylpyridin-3-yl)(1-methyl-1H-1,2,3-triazol-5-yl)methanol] returned an equilibrium dissociation constant (Kd) of 0.0003 µM. In test [2], the IC50 is around 0.08 µM and the “RORγt … % inhibition @ 6 μM” value worked out at 63%. The molecule further registered an IC50 in test [3] (Homo sapiens, CD4+ T) of 0.0023 µM.

`COc1nc2ccc(C(N)(c3ccc(Cl)cc3)c3cncn3C)cc2c(Cl)c1Cc1ccc(-n2cccn2)cc1` (single isomer, unassigned) [Example 118c, (3-(4-(1H-Pyrazol-1-yl)benzyl)-4-chloro-2-methoxyquinolin-6-yl)(4-chlorophenyl)(1-methyl-1H-imidazol-5-yl)methanamine•TFA] showed an IC50 in test [3] of 0.05 µM.

In turn, `COc1nc2ccc(C(O)(c3ccc(C(F)(F)F)cc3)c3cccnc3)cc2c(Cl)c1Cc1ccc(-n2cccn2)cc1` (single isomer, unassigned) [Example 162c] yielded a Kd in test [1] of 0.0041 µM. Further, the IC50 is 0.098 µM in test [2] and 0.049 µM in test [3] (Homo sapiens, CD4+ T). Further, in test [2], the “RORγt … % inhibition @ 6 μM” value is on record as 98%.

As to `COc1nc2ccc(C(O)(c3cnc(C)n3C)c3cnc(C)n3C)cc2c(Cl)c1Cc1ccc(-n2cccn2)cc1` [Example 13, (3-(4-(1H-Pyrazol-1-yl)benzyl)-4-chloro-2-methoxyquinolin-6-yl)bis(1,2-dimethyl-1H-imidazol-5-yl)methanol], half-maximal inhibition in test [3] (IC50) was put at 0.1 µM.

Consider `COc1nc2ccc(C(O)(c3ccc(Cl)cc3)c3cncn3C)cc2c(Cl)c1Cc1ccc(C(F)(F)F)nc1` (stereo not shown) [Example 39a], for which, in test [1], the Kd turned out to be 0.066 µM. Besides, in test [2], the IC50 turned out to be 0.072 µM and the inhibition at 6 µM turned out to be 92%. In test [3] (Homo sapiens, CD4+ T), this molecule had an IC50 of 0.11 µM.

Consider `COc1nc2ccc(C(O)(c3ccc(C(F)(F)F)cc3)c3cccnc3)cc2c(Cl)c1Cc1ccc(-n2cccn2)cc1` (stereo not shown) [Example 162a], for which, in test [1], binding was put at a Kd of 0.02 µM. Besides, the IC50 in test [2] was 0.31 µM; in test [3] (Homo sapiens, CD4+ T) it was 0.25 µM. Also, the inhibition at 6 µM in test [2] is 90%.

Broadly, the Kd is the concentration at which binding is half-saturated. Lower therefore signals tighter binding. One may read the IC50 as the concentration at which inhibition is half-maximal. A low value points to higher potency. Broadly, the inhibition is the share of the control response that was lost under treatment.
